# pEC50, pIC50, pKd: −log10 of the molar value.
# What was measured:
# Escherichia coli [1] = assay: Antibacterial activity against Escherichia coli MC4100; assay type: functional
# [2] = Inhibition of APIase activity of Escherichia coli MC4100 DNAK
# [3] = Antiproliferative activity against human colon cancer cells; assay type: functional, cell-based; conditions: Cancer cell lines
# [4] = Antiproliferative activity against human breast cancer cells; assay type: functional, cell-based; conditions: Cancer cell lines
# [5] = Antiproliferative activity against human bladder cancer cells; assay type: functional, cell-based; conditions: Cancer cell lines
# Escherichia coli [6] = assay: Antibacterial activity against Escherichia coli; assay type: functional
# [7] = test system: Yersinia pseudotuberculosis; assay: Antibacterial activity against Yersinia pseudotuberculosis; assay type: functional
# [8] = Cytotoxicity against human erythrocytes assessed as hemolysis after 30 mins by spectrometric analysis; assay type: cell-based; conditions: Erythrocyte, 0.5 h
# Escherichia coli [9] = assay: Inhibition of Escherichia coli DNAK at 150 uM
# Escherichia coli [10] = assay: Ratio of ciprofloxacin MIC to compound MIC for Escherichia coli; assay type: functional
# [11] = Binding affinity to Escherichia coli DNAK substrate binding domain by isothermal titration assay
# Saccharomyces cerevisiae = assay: Induction of ATPase activity of yeast cytosolic HSC70
# L1210 = assay: Antitumor activity against mouse L1210 cells xenografted in CDF1 mouse assessed as log reduction in tumor burden; assay type: functional
# [12] = molecular target: Heat shock cognate 71 kDa protein (Homo sapiens) (UniProt P11142); assay: Binding affinity to HSC70 EEVD domain by mass spectroscopy
# [13] = Terminal half life in renal transplant patient; assay type: ADME, organism-based; conditions: human, in vivo; read-out: beta t1/2 (converted)
# [14] = Binding affinity to HSP90 EEVD domain by mass spectroscopy
# [15] = Alpha half life in renal transplant patient; assay type: ADME, organism-based; conditions: human, in vivo; read-out: alphat1/2
# [16] = Inhibition of Escherichia coli DNAK by luciferase-refolding assay
# Sequence of Heat shock cognate 71 kDa protein (Homo sapiens) (P11142 2-646 limits assumed): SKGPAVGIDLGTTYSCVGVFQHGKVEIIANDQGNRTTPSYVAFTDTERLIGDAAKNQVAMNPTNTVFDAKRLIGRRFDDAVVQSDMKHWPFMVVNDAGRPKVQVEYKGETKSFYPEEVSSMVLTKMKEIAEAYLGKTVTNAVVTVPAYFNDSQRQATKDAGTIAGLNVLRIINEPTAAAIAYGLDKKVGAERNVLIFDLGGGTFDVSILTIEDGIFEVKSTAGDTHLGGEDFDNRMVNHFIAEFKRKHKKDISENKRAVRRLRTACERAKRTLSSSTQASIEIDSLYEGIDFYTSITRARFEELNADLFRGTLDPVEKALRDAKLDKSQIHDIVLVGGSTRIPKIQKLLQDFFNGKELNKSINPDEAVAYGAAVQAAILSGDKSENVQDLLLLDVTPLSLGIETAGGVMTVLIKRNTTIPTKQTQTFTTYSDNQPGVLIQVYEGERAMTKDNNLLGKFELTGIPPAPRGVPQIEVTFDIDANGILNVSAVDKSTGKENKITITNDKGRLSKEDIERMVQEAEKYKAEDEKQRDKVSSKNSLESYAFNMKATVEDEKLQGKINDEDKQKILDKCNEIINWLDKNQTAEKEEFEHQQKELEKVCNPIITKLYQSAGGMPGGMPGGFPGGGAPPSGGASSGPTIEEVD
molecule,measurement,setting,value
CCCCCCCCCCCCCCCCC(=O)NCc1ccc(C(=O)N[C@H](C(=O)O)[C@@H](C)CC)cc1,MIC,Escherichia coli [1],180 µg/mL
same,pIC50,[2],5.92
CCn1c(=O)/c(=C2\Sc3ccccc3N2C)s/c1=C\c1cccc[n+]1CC,pIC50,[3],6.00
same,pIC50,[4],6.00
same,pIC50,[5],6.00
Cc1ccc(NC(=O)c2ccc([N+](=O)[O-])o2)cc1,MIC,Escherichia coli [6],10 µM
same,MIC,[7],< 12 µM
CCCC/C=C\CCCCCCCCC(=O)NCc1ccc(C(=O)N[C@H](C(=O)O)[C@@H](C)CC)cc1,MIC,Escherichia coli [1],280 µg/mL
same,EC50,[8],> 1500 µg/mL
same,pIC50,[2],4.44
CC1=C(C(=O)OCc2ccccc2)C(c2ccc(C3CCCCC3)cc2)NC(=O)N1CCCCCC(=O)O (configuration not stated),inhibition,Escherichia coli [9],80%
H-GRPDKPRPYLPRPRPPRPVRI-OH,Ratio,Escherichia coli [10],4
O=C(Nc1ccc2[nH]ccc2c1)c1cccs1,MIC,Escherichia coli [6],10 µM
same,MIC,[7],10 µM
same,pKd,[11],4.90
N=C(N)NCCCCCCC(=O)N[C@@H](O)C(=O)NCCCCNCCCN,Activity,Saccharomyces cerevisiae,20%
same,FC,L1210,4
same,Activity,[12],5 µM
same,half-life,[13],2 h
same,Activity,[14],5 µM
same,half-life,[15],5 min
COC(=O)C1=C(CCc2ccccc2)NC(=O)NC1c1ccc([N+](=O)[O-])cc1 (configuration not stated),pEC50,[16],5.40
O=C(NCc1ccccc1F)c1cccs1,MIC,Escherichia coli [6],10 µM
same,MIC,[7],10 µM
same,pKd,[11],4.15
CCCCCCCCCCCCCCC(=O)NCc1ccc(C(=O)N[C@H](C(=O)O)[C@@H](C)CC)cc1,MIC,Escherichia coli [1],380 µg/mL
same,pIC50,[2],5.30

# Reference: ChEMBL document CHEMBL1177696, “Heat shock protein 70 (hsp70) as an emerging drug target” (J Med Chem, 2010)
